Entries after “also recorded” stand apart in the source; their conditions may differ.
How the values were obtained:
PXB cells, SEC and LX2 = experiment: Aggregation behavior of cells treated with heparin/collagen (live-cell confocal observation); assay type: cell-based, Human; conditions: 0.2 mg/mL collagen, 0.5 mg/mL heparin in 100 mM Tris-HCl; 96-well microplate; 2 hours after seeding; FIG. 2
Procedure: PXB cells, SEC and LX2 were used as cells.
The collected cells were mixed at the following ratios and cell amounts to obtain a cell mixture. • total amount of cells: 300,000 cells • cell proportions in tissue: • PXB cells: 65%·SEC: 25%·LX2: 10% Step 1-4
(§1) 100 μL of each of the following solutions was added to the cell mixture at room temperature, suspended until the cells were no longer visible, and then centrifuged (400 g×2 min) to obtain a viscous component. Here, regardless of the presence of heparin and collagen, it was confirmed in advance that the pH of each solution was approximately around 7.4. • (1) 100 mM Tris-HCl buffer solution • (2) collagen-containing solution (0.2 mg/mL collagen in 100 mM Tris-HCl buffer solution*) • (3) collagen and heparin-containing solution (0.2 mg/mL collagen and 0.5 mg/mL heparin in 100 mM Tris-HCl buffer solution) • *Since collagen quickly gelled in a neutral solution at room temperature, equal amounts of a 0.4 mg/mL collagen in 5 mM acetate buffer solution and a 200 mM Tris-HCl buffer solution prepared in advance were mixed in each of the above solutions and used. Step 1-5
After the supernatant was removed from the solution containing the viscous component, HCM was added so that the final volume of the solution was a solution amount of 100 μL to obtain a cell suspension. […]

MRP2 = MRP2 immunostaining and image analysis of hepatotoxicity model formed in fibrin gel; assay type: cell-based, Human; conditions: 3 days of culture; for expression of MRP2 (fluorescence): 0.2 mg/mL collagen and/or 0.5 mg/mL heparin
Procedure: Regarding hepatotoxicity models treated with each solution, it was evaluated whether there was a difference in the state of adhesion between hepatocytes.
A cell mixture with the following proportions and cell amounts was obtained in the same procedures as Steps 1-1 to 1-3 in Test Example 1. • total amount of cells: 300,000 cells • cell proportions in tissue: • PXB cell: 65%·SEC: 25%·LX2: 10% Step 2-2
After the supernatant was removed from the solution containing the viscous component obtained in Step 2-2, a 20 U/mL thrombin solution (solvent: HCM) was added so that the final volume of the solution was a solution amount of “the number of wells to be seeded”×2 μL to obtain a cell suspension.
2 μL of a 10 mg/mL fibrinogen solution was seeded on a 48-well microplate to form droplets and each cell suspension obtained in Step 2-3 was then added into the droplets, and then left in an incubator for 1 hour to form a fibrin gel.
0.5 mL of HCM (containing Endothelial Cell Growth Supplement) was added to each well in which the fibrin gel was formed.
After HCM was added, culture was continued for 3 days in each well in which the fibrin gel was formed.
After 3 days of culture, the 48-well microplate was removed from the incubator, the medium was removed, washing with PBS was performed, and 300 μL of a 4% paraformaldehyde·phosphate buffer solution (hereinafter referred to as PFA) was then added to each well to fix a hepatotoxicity model (3D model). Then, the PFA was washed thoroughly and removed.
100 μL of a 0.2 (v/v) % TRITON/1 (w/v) % BSA PBS solution (hereinafter referred to as a BSA solution) was added to each well, and left at room temperature for 2 hours.
Anti-MRP2 antibodies were diluted 100-fold with a BSA solution to obtain a primary antibody solution. 100 μL of the primary antibody solution was added to each well and left at 4° C. for 24 hours. Then, the primary antibody solution was washed thoroughly and removed.
Secondary antibodies were diluted 200-fold with a BSA solution to obtain a secondary antibody solution. 100 μL of the secondary antibody solution was added to each well, shielded from light and left at room temperature for 1 hour. Then, the secondary antibody solution was washed thoroughly and removed, and 100 μL of PBS was added to each well.
Images were captured under a confocal microscope. […]
The intensities of the captured images were summed to obtain a fluorescence observation image of each hepatotoxicity model (3D model). […]

[1] = Gelation of neutral collagen solution at room temperature; assay type: physicochemical; conditions: pH 7.4, room temperature
Procedure: as §1
Since collagen quickly gelled in a neutral solution at room temperature, equal amounts of a 0.4 mg/mL collagen in 5 mM acetate buffer solution and a 200 mM Tris-HCl buffer solution prepared in advance were mixed in each of the above solutions and used. […]

bile canaliculi = experiment: Bile acid assay (CLF) confirming formation of bile canaliculi in hepatotoxicity model; assay type: cell-based, Human; conditions: collagen 0.3 mg/mL, 6 days of culture
Procedure: A hepatotoxicity model was produced according to the same method as in the method described in Test Examples 1 and 2. However, the collagen concentration was 0.3 mg/mL, and the heparin concentration was 0.05 mg/mL, 0.15 mg/mL, 0.5 mg/mL, or 5.0 mg/mL (all final concentrations).
After 6 days of culture, the medium was replaced with 300 μL of a medium containing 5 μM CLF (FITC-labeled bile acid CORNING #451041) on which the following operation was performed (this assay was performed while cells were alive). After being left in the incubator for 20 min, the tissue was washed with PBS 5 times. The medium was replaced, and observation was performed under a fluorescence microscope.
FIG. 6, FIG. 7, FIG. 8, and FIG. 9 show the results of fluorescence observation after a medium containing CLF was incubated for the hepatotoxicity models produced with different heparin concentrations. […] In each drawing, the scale bar indicates 500 μm. In normal live tissue in which bile canaliculi were favorably formed, it was thought that, since hepatocytes excreted bile acids taken up from the outside of the live tissue into the bile canaliculi, the intensity of fluorescence derived from FITC retained in the cells was low after the CLF treatment.

Substance | aggregation of cells (PXB cells, SEC and LX2) | expression of MRP2 (fluorescence) (MRP2; versus control, FIG. 3) | aggregation of cells in hepatotoxicity model (MRP2; 0.2 mg/mL collagen, FIG. 3) | gelation of solution at room temperature [1] | expression intensity percentage of MRP2 (expression area percentage per area, image analysis) (MRP2; versus control, FIG. 5) | excretion of CLF taken into hepatocytes into the bile canaliculi (bile canaliculi; heparin 0.15, 0.5 or 5.0 mg/mL, 5 μM CLF 20 min, FIG. 7-9, (hydrochloride)) | intensity of fluorescence derived from FITC retained in the cells with increasing heparin concentration (bile canaliculi; heparin concentration increased, 5 μM CLF)
collagen | aggregation of cells was significantly promoted | expression of MRP2 tended to decrease significantly | cells tended to aggregate excessively | quickly gelled at room temperature | – | – | –
heparin (hydrochloride) | – | fluorescence was enhanced as a whole compared to control conditions | – | did not gel at room temperature for a long time | higher expression intensity percentage of MRP2 than the control | CLF taken into hepatocytes was more efficiently excreted into the bile canaliculi; also recorded: CLF taken into hepatocytes was easily excreted into the bile canaliculi | the intensity of fluorescence derived from FITC retained in the cells decreased
